Test results from PubChem BioAssay AID2060901 (Molecular Pharmacology Branch, DTP, NCI, 2025).

Tested on: 422866-222-R5-J1-PDC complex spheroids viability
Test: Anticancer human tumor 422866-222-R5-J1-PDC patient-derived pancreatic adenocarcinoma cell line growth inhibition [RAS]
Details: for IC50: curve of first compound; for viability, T/C: stronger effect = lower value
Method in brief: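 Agents were tested in combination matrices in half-log decrements from a top concentration at or near clinical Cmax (10 microM if undetermined). Targets were multi-cell spheroids of tumour lines plus HUVEC and MSC stromal cells.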
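Also: spheroids exposed to compounds for 7 days.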
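For viability, T/C in this document: 100% = DMSO vehicle control viability.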

- IC50 (second compound 0.000949 µM): < 3.16 nM
- IC50 (second compound 0.003 µM): < 3.16 nM
- IC50 (second compound 0.00949 µM): < 3.16 nM
- IC50 (second compound 0.03 µM): < 3.16 nM
- IC50 (second compound 0.0949 µM): < 3.16 nM
- IC50 (second compound 0.3 µM): < 3.16 nM
Structure (SMILES): C=CC(=O)N1CCN(c2nc(OCC3CCCN3C)nc3c(F)c(-c4nc(N)cc(C)c4C(F)(F)F)c(Cl)cc23)C(C)C1 (configuration not stated) + CCn1c(-c2cc(N3CCN(C)CC3)cnc2C(C)OC)c2c3cc(ccc31)-c1csc(n1)CC(NC(=O)C1CC1C)C(=O)N1CCCC(N1)C(=O)OCC(C)(C)C2
- viability, T/C (second compound 0.000949 µM, first compound 0.00316 µM): 19.5%
- viability, T/C (second compound 0.000949 µM, first compound 0.01 µM): 18.6%
- viability, T/C (second compound 0.000949 µM, first compound 0.0316 µM): 16.9%
- viability, T/C (second compound 0.000949 µM, first compound 0.1 µM): 18.5%
- viability, T/C (second compound 0.000949 µM, first compound 0.316 µM): 15.8%
- viability, T/C (second compound 0.000949 µM, first compound 1 µM): 20.3%
- viability, T/C (second compound 0.003 µM, first compound 0.00316 µM): 19.6%
- viability, T/C (second compound 0.003 µM, first compound 0.01 µM): 15%
- viability, T/C (second compound 0.003 µM, first compound 0.0316 µM): 19.8%
- viability, T/C (second compound 0.003 µM, first compound 0.1 µM): 18.2%
- viability, T/C (second compound 0.003 µM, first compound 0.316 µM): 17.9%
- viability, T/C (second compound 0.003 µM, first compound 1 µM): 20.6%
- viability, T/C (second compound 0.00949 µM, first compound 0.00316 µM): 18.3%
- viability, T/C (second compound 0.00949 µM, first compound 0.01 µM): 19.1%
- viability, T/C (second compound 0.00949 µM, first compound 0.0316 µM): 17.4%
- viability, T/C (second compound 0.00949 µM, first compound 0.1 µM): 14.8%
- viability, T/C (second compound 0.00949 µM, first compound 0.316 µM): 17.7%
- viability, T/C (second compound 0.00949 µM, first compound 1 µM): 18%
- viability, T/C (second compound 0.03 µM, first compound 0.00316 µM): 17.1%
- viability, T/C (second compound 0.03 µM, first compound 0.01 µM): 15.9%
- viability, T/C (second compound 0.03 µM, first compound 0.0316 µM): 15.7%
- viability, T/C (second compound 0.03 µM, first compound 0.1 µM): 17.9%
- viability, T/C (second compound 0.03 µM, first compound 0.316 µM): 18.2%
- viability, T/C (second compound 0.03 µM, first compound 1 µM): 22.9%
- viability, T/C (second compound 0.0949 µM, first compound 0.00316 µM): 19.4%
- viability, T/C (second compound 0.0949 µM, first compound 0.01 µM): 16.9%
- viability, T/C (second compound 0.0949 µM, first compound 0.0316 µM): 15.9%
- viability, T/C (second compound 0.0949 µM, first compound 0.1 µM): 19%
- viability, T/C (second compound 0.0949 µM, first compound 0.316 µM): 21.3%
- viability, T/C (second compound 0.0949 µM, first compound 1 µM): 21.5%
- viability, T/C (second compound 0.3 µM, first compound 0.00316 µM): 19.5%
- viability, T/C (second compound 0.3 µM, first compound 0.01 µM): 22.9%
- viability, T/C (second compound 0.3 µM, first compound 0.0316 µM): 21.7%
- viability, T/C (second compound 0.3 µM, first compound 0.1 µM): 20.2%
- viability, T/C (second compound 0.3 µM, first compound 0.316 µM): 19.5%
- viability, T/C (second compound 0.3 µM, first compound 1 µM): 24.9%
